Data: patent publication US20240148831A1, “COMBINATION TREATMENTS FOR CHOLESTASIS” (THE BOARD OF REGENTS OF THE UNIVERSITY OF OKLAHOMA, priority 2022, published 2024)

Tests used:
Format in all cases: in vivo
Cyp2c70 KO mice [1] = test: Gut barrier integrity (colon H&E and ZO-1 immunohistochemistry) in Cyp2c70 KO mice; details: 4 weeks
Source text: (§1) The Cyp2c70 KO mice with Exon 4 deletion were generated by CRISPR/Cas-mediated genome engineering. Cas9 and gRNA (gRNA1 matching reverse strand of the Cyp2c70 gene: […] (SEQ ID NO:1); gRNA2 matching forward strand of the Cyp2c70 gene: […] (SEQ ID NO:2)) were co-injected into fertilized eggs of C57BL/6J mice. One F0 male founder mouse was identified by PCR followed by sequencing analysis to confirm deletion of an 888 bp genome region containing the entire Exon 4. This F0 founder was bred to a WT C57BL/6J mouse to obtain 3 F1 Cyp2c70+/−females confirming germline transmission. Further breeding of the F1 females with WT C57BL/6J mice (the Jackson Lab, Bar Harbor, ME) yielded WT mice and Cyp2c70+/−mice. Subsequent breeding of the Cyp2c70+/−offspring yielded WT mice and Cyp2c70−/− mice (Cyp2c70 KO). The Cyp2c70 KO mice were then bred via KO×KO breeding scheme. The WT littermates were used to generate WT mice via WT×WT breeding scheme. […] Mice were housed in micro-isolator cages with Biofresh performance bedding (Pelleted cellulose) under 7 AM-7 PM light cycle and 7 PM-7 AM dark cycle. GSK was mixed with chow diet to achieve an estimated 5 mg/kg/day intake based on 5 g/day food intake by a 25 g mouse. AAV-Null or AAV-FGF15 was injected via tail vein at a dose of 1×10^11 GC/mouse. Mice were euthanized following a 6 h fast from 9 am to 3 pm. Animals received humane care according to the criteria outlined in the “Guide for the Care and Use of Laboratory Animals.” All animal protocols were approved by the Institutional Animal Care and Use Committee of the University of Oklahoma Health Sciences Center.
Liver tissues and colon tissues were fixed in 4% paraformaldehyde and paraffin embedded. Hematoxylin and Eosin (H&E) staining was performed with an automated stainer. Sirius Red staining was performed with Direct Red 80 solution (Sigma #365548, St. Louis, MO). […]

Cyp2c70 KO mice [2] = test: Bile acid metabolism (fecal total bile acids, bile acid pool, gallbladder bile acid composition, liver CYP7A1/CYP8B1 mRNA) in Cyp2c70 KO mice
Source text: as §1
(§2) Bile acids were extracted from liver, whole gallbladder bile, whole small intestine with content, and dried feces in 90% ethanol. To collect fecal sample, an individual mouse was placed in a jar briefly and fresh feces were collected. Total bile acid amount was measured by a bile acid assay kit. Bile acid pool was calculated as the total bile acids in liver, gallbladder and small intestine. Bile acid composition in the gallbladder bile and the pooled fecal extracts was analyzed on a Thermo Scientific UltiMate 3000 UHPLC with a Waters Cortecs C18 column and a TSQ Quantis triple quadrupole mass spectrometer. Standard curves for bile acids and internal standard glycine-CDCA-d4 were generated with purified compounds and relative area under the curve (AUC) was calculated. To measure T-CDCA-d4 metabolism in fecal slurry mixtures, pooled fresh fecal sample from each group was resuspended in a reaction buffer consisting of 10% PBS (pH=7.4) and 90% 3 mM sodium acetate (pH=5.2) to a final suspension of 4 mg fecal sample/ml. T-CDCA-d4 was added to a final concentration of 20 ug/ml and the mixture was incubated at 37° C. for 6 h. An equal amount of methanol was added and the mixture was incubated on ice for 1 h to precipitate protein. After centrifugation, an aliquot of the supernatant was vacuum dried and resuspended in injection buffer (0.1% formic acid, 30% acetonitrile, 70% HPLC water), which was used for LC-MS measurement of bile acids as described above.
Total liver RNA was purified with Trizol (Sigma-Aldrich, St. Louis, MO). Reverse transcription was performed by using Oligo dT primer and SuperScript III reverse transcriptase (ThermoFisher Scientific, Grand Island, NY). Real-time PCR was performed on a Bio-Rad CFX384 Real-time PCR system with iQ SYBR Green Supermix (Bio-Rad, Hercules, CA). 18S was measured and used for normalization. The comparative CT (Ct) method was used to determine the relative mRNA expression with the control group arbitrarily set as “1”.

Cyp2c70 KO mice [3] = test: Liver histopathology, serum transaminases and liver mRNA markers after 4 weeks of treatment in Cyp2c70 KO mice; details: female Cyp2c70 KO mice
Source text: as §1
Liver tissues and colon tissues were fixed in 4% paraformaldehyde and paraffin embedded. Hematoxylin and Eosin (H&E) staining was performed with an automated stainer. Sirius Red staining was performed with Direct Red 80 solution (Sigma #365548, St. Louis, MO). For immunohistochemistry, paraffin embedded tissues were deparaffinized and rehydrated, and after antigen retrieval, […] sections were incubated first with blocking buffer (5% BSA and 5% goat serum in PBS) for 1 h and then blocking buffer containing primary antibodies overnight at 4° C. After washing with PBS, the sections were incubated with secondary antibodies in SignalStain® Boost IHC Detection Reagent (Cell Signaling, #8114, Danvers, MA) for 1 h. Signal was then visualized using a DAB kit (Cell Signaling, #11724, Danvers, MA). The sections were counterstained with Hematoxylin. Images are acquired by using an EVOS M5000 imaging system (ThermoFisher Scientific, Grand Island, NY).
Total liver RNA was purified with Trizol (Sigma-Aldrich, St. Louis, MO). […] 18S was measured and used for normalization. […]

Cyp2c70 KO mice [4] = test: Fecal bile acid composition and concentration by LC-MS in Cyp2c70 KO mice; details: 4 weeks
Source text: as §1, §2

[5] = female Cyp2c70 KO mice, vs untreated mice

CCCC[C@]1(CC)CS(=O)(=O)c2cc(CNC(CC(=O)O)CC(=O)O)c(OC)cc2[C@@H](c2ccccc2)N1 [GSK, GSK2330672]
colon ZO-1 level (immunohistochemistry) (Cyp2c70 KO mice [1]; female Cyp2c70 KO mice): failed to restore
colon ZO-1 level (immunohistochemistry) (Cyp2c70 KO mice [1]; male Cyp2c70 KO mice): failed to restore
histological features of the colon epithelium (H&E) (Cyp2c70 KO mice [1]; male and female Cyp2c70 KO mice): did not reveal abnormal histological features
hepatic CYP8B1 expression (Cyp2c70 KO mice [2]; female Cyp2c70 KO mice, 4 weeks): markedly increased
gallbladder T-CDCA abundance (Cyp2c70 KO mice [2]; female Cyp2c70 KO mice, 4 weeks, untreated printed as −70%): ~40%
gallbladder T-DCA abundance (Cyp2c70 KO mice [2]; female Cyp2c70 KO mice, 4 weeks, untreated ~1%): ~30%
gallbladder T-CA abundance (Cyp2c70 KO mice [2]; female Cyp2c70 KO mice, 4 weeks, vs untreated): without affecting
increase of fecal bile acid loss (excretion) (Cyp2c70 KO mice [2]; female Cyp2c70 KO mice, after 2 weeks treatment): ~2 fold
reduction of total bile acid pool (Cyp2c70 KO mice [2]; female Cyp2c70 KO mice, after 4 weeks of treatment): ~40%
gallbladder T-DCA abundance (Cyp2c70 KO mice [2]; male Cyp2c70 KO mice, 4 weeks): increasing
liver CYP7A1 mRNA expression (Cyp2c70 KO mice [2]; male Cyp2c70 KO mice, 4 weeks): induction
liver CYP8B1 mRNA expression (Cyp2c70 KO mice [2]; male Cyp2c70 KO mice, 4 weeks): induction
fecal bile acid excretion (Cyp2c70 KO mice [2]; male Cyp2c70 KO mice, after 2 weeks of treatment): increased
reduction of bile acid pool size (Cyp2c70 KO mice [2]; male Cyp2c70 KO mice, after 4 weeks of treatment): ~60%
reduction of liver p21 mRNA (Cyp2c70 KO mice [3]; 4 weeks of treatment): did not affect
serum transaminases (ALT, AST) (Cyp2c70 KO mice [3]; 4 weeks of treatment): not altered
portal inflammation (inflammatory infiltration) and ductular reaction (Cyp2c70 KO mice [3]; 4 weeks of treatment from 12 weeks of age, F4/80, CK19, H&E stain): largely ineffective
portal fibrosis (Cyp2c70 KO mice [3]; 4 weeks of treatment, Sirius Red stain): largely ineffective
fecal DCA abundance (relative) (Cyp2c70 KO mice [4]; female Cyp2c70 KO mice): increased
fecal LCA abundance (relative) (Cyp2c70 KO mice [4]; female Cyp2c70 KO mice, untreated ~90% LCA): slightly reduced
fecal DCA amount (absolute) (Cyp2c70 KO mice [4]; [5]): higher
fecal LCA amount (absolute) (Cyp2c70 KO mice [4]; [5]): higher
fecal DCA amount (Cyp2c70 KO mice [4]; male Cyp2c70 KO mice): increased
fecal LCA amount (Cyp2c70 KO mice [4]; male Cyp2c70 KO mice): did not increase
